# Measurements: US20240058311A1, “USE OF SMO INHIBITOR IN PREPARATION OF DRUG FOR PREVENTING, DELAYING OR A[…] STENOSIS OF ART[…]” (JINAN UNIVERSITY, priority 2022, published 2024)
# Experiments:
# TNF-α [1] = test: Western blot of TNF-α in vascular endothelial cells from rat AVF tissue; assay type: in vivo; settings: vascular endothelial cells isolated from rat AVF tissue, 1 mg/kg/day i.p. (FIG. 14D, 14F)
# Procedure: (§1) After the experiment was finished, the AVF tissues of the rats were collected and digested with enzymes to separate vascular endothelial cells. The vascular endothelial cells were lysed with the mixture liquid of RIPA lysis buffer and the phosphatase inhibitor and centrifuged to collect the supernatant. The protein concentration was measured, and the protein samples were prepared. Electrophoresis was carried out, and the membrane was transferred at 260 mA for 60 minutes. The transferred PVDF membranes were soaked with TBST buffer containing 5% skimmed milk powder, blocked at room temperature at a rotation rate of 60 rpm for 1 hour, and gently washed with TBST buffer 3 times, each time lasting 8-10 minutes. The corresponding diluents of primary antibodies (SMO, Cascpase3, TNF-α, MCP-1, and IL-6) were added, where the dilution ratio was determined according to the requirements of each antibody, and the PVDF membranes were incubated overnight in a shaker at 4° C. and cleaned with TBST buffer 3 times the next day, each time lasting 8-10 minutes. […] Development: Luminescent liquid A and liquid B were mixed according to the ratio of 1:1, the residual water on the PVDF membranes was gently absorbed with filter papers, the mixed luminescent liquid was uniformly dropped on the PVDF membranes, and the western blot results were analyzed on a gel imager.
# SMO [2] = settings: HUVECs, high glucose; 10 μM; compared with Vis and Gla at the same dosage (FIG. 5A)
# Procedure: (§8) The total RNA was extracted from HUVECs by the Trizol method. The cDNA was synthesized using Evo M-MLV RT Premix premix for qPCR. Fluorescence quantitative PCR was carried out using gene-specific primers (Table 1) and SYBR® Green Premix Pro Taq HS qPCR Kit. The relative mRNA expression quantity was calculated by 2^−ΔΔCT method.
# SMO [3] = test: Immunohistochemistry of SMO in vascular tissue around the fistula; assay type: in vivo, rat; settings: 1 mg/kg/day i.p., vs DM group (FIG. 13)
# Procedure: (§2) The paraffin-embedded tissue sections were stained with HE. Blood vessel tissue samples were dewaxed and rehydrated, and antigen retrieval and IHC staining were carried out. Tissue sections were blocked at room temperature for at least 1 hour and incubated overnight with antibodies of TNF-α, MCP1, IL-6, and SMO at 4° C. After careful cleaning, tissue sections were detected using a DAB-HRP method and observed with a microscope. Quantitative analysis was carried out according to the percentage of […] cells and the staining intensity.
# IL-6 [4] = test: Immunohistochemistry of IL-6 in vascular tissue around the fistula; assay type: in vivo, rat; settings: 1 mg/kg/day i.p., vs DM group (FIG. 13)
# Procedure: as §2
# IL-6 [5] = test: ELISA of IL-6 in peripheral blood plasma of rats; assay type: in vivo, rat; settings: 1 mg/kg/day i.p., vs DM group (FIG. 14C)
# Procedure: (§3) Peripheral blood samples of rats were collected, and plasma was separated. The concentration of cytokines (TNF-α, MCP-1, and IL-6) in plasma was determined using an ELISA kit (Jiangsu Enzyme Immune Industrial Co., Ltd., China).
# (§4) Weight and blood glucose of rats were measured every week during the experiment, peripheral blood was extracted at specific time points (0, 1, and 14 weeks) for analysis, and AVF tissues were isolated at the end of the experiment for further analysis.
# IL-6 [6] = test: Western blot of IL-6 in vascular endothelial cells from rat AVF tissue; assay type: in vivo; settings: vascular endothelial cells isolated from rat AVF tissue, 1 mg/kg/day i.p. (FIG. 14D, 14E)
# Procedure: as §1
# TNF-α [7] = test: ELISA of TNF-α in peripheral blood plasma of rats; assay type: in vivo, rat; settings: 1 mg/kg/day i.p., vs DM group (FIG. 14A)
# Procedure: as §3, §4
# MCP-1 [8] = settings: HUVECs
# Procedure: as §8
# [9] = Body weight of diabetic AVF rats; assay type: in vivo, rat; settings: 1 mg/kg/day intraperitoneal, DM+Cyc vs DM group (FIG. 9)
# Procedure: (§5) Male SD rats which were aged 6-8 weeks and weighed 200-250 g were purchased from Beijing Vital River Laboratory Animal Technology Co., Ltd. In order to induce diabetes, the rats fasted overnight. Streptozotocin (STZ) (US, sigma, S0130-1G) (65 mg/kg) was dissolved in the citric acid buffer solution (0.1 M citric acid and 0.1 M sodium citrate) and single injected intraperitoneally into the abdominal cavity of the rats. The control group was administrated with an equal volume of the mediator-sodium citrate buffer (pH 4.5). Three days after the STZ injection, SD rats whose fasting-blood glucose (FPG) was greater than or equal to 300 mg/dL measured by Roche glucometer (Roche, Shanghai, China, LKBIO1500) were considered to have diabetes and used in follow-up experiments (FIG. 10).
# (§6) After the construction of the diabetic model. SD rats were used to construct the AVF model. Rats were anesthetized by intraperitoneal injection of chloral hydrate (0.3 mL/100 g) and placed on the operating table during the operation. […]
# as §4
# TNF-α [10] = test: ELISA of TNF-α in HUVEC culture supernatant; assay type: cell-based, human; settings: HUVECs treated with 10 μM, ELISA (FIG. 8B)
# Procedure: (§7) HUVECs were inoculated into a 6-well plate and treated with glucose of different concentrations. After 48 hours, the supernatant was collected, and the expression of inflammatory cytokines TNF-α, MCP-1. and IL-6 in the supernatant was detected using TNF-α, MCP-1 and IL-6 ELISA kits according to instructions of the kits, respectively.
# [11] = Blood glucose level of diabetic AVF rats; assay type: in vivo, rat; settings: 1 mg/kg/day intraperitoneal, DM+Cyc vs DM group (FIG. 10)
# Procedure: as §5, §6, §4
# IL-6 [12] = settings: HUVECs
# Procedure: as §8
# MCP-1 [13] = test: ELISA of MCP-1 in HUVEC culture supernatant; assay type: cell-based, human; settings: HUVECs treated with 10 μM, ELISA (FIG. 8C)
# Procedure: as §7
# MCP-1 [14] = test: Western blot of MCP-1 in high glucose-treated HUVECs; assay type: cell-based, human; settings: western blot (FIG. 7D, 7G)
# IL-6 [15] = test: Western blot of IL-6 in high glucose-treated HUVECs; assay type: cell-based, human; settings: western blot (FIG. 7D, 7E)
# diabetic AVF rats [16] = test: Ultrasonic examination of AVF in diabetic AVF rats; assay type: in vivo, rat; settings: 1 mg/kg/day i.p.
# Procedure: as §5
# After the construction of the diabetic model. SD rats were used to construct the AVF model. Rats were anesthetized by intraperitoneal injection of chloral hydrate (0.3 mL/100 g) and placed on the operating table during the operation. The iliac vascular area was exposed by cutting a 3 cm incision along the left inguinal fold and retracting abdominal muscle tissue and other soft tissue. The operation was carried out under a microscope, and the iliac artery and vein were separated from the surrounding fascia and nerves.
# SMO [17] = test: Western blot of SMO in vascular endothelial cells from rat AVF tissue; assay type: in vivo; settings: vascular endothelial cells isolated from rat AVF tissue, 1 mg/kg/day i.p. (FIG. 14D, 14H)
# Procedure: as §1
# MCP-1 [18] = test: Immunohistochemistry of MCP-1 in vascular tissue around the fistula; assay type: in vivo, rat; settings: 1 mg/kg/day i.p., vs DM group (FIG. 13)
# Procedure: as §2
# HUVECs [19] = test: Lactate dehydrogenase (LDH) assay in HUVECs under high glucose; assay type: cell-based, human; settings: HG, after intervention with Cyc (FIG. 6C)
# Procedure: HUVECs were inoculated in a 6-well plate (1×10^6 cells/well) and treated in different glucose conditions. After 48 hours of culture, the supernatant was collected, and the LDH activity was analyzed using an LDH cytotoxicity assay kit.
# TNF-α [20] = settings: HUVECs
# Procedure: as §8
# IL-6 [21] = test: ELISA of IL-6 in HUVEC culture supernatant; assay type: cell-based, human; settings: HUVECs treated with 10 μM, ELISA (FIG. 8A)
# Procedure: as §7
# diabetic AVF rats [22] = test: Hematoxylin-eosin staining of vascular tissue at AVF anastomosis; assay type: in vivo, rat; settings: HE staining at AVF anastomosis, 1 mg/kg/day i.p., vs DM group (FIG. 12)
# Procedure: as §2, §5
# After the construction of the diabetic model. […]
# TNF-α [23] = test: Western blot of TNF-α in high glucose-treated HUVECs; assay type: cell-based, human; settings: western blot (FIG. 7D, 7F)
# MCP-1 [24] = test: ELISA of MCP-1 in peripheral blood plasma of rats; assay type: in vivo, rat; settings: 1 mg/kg/day i.p., vs DM group (FIG. 14B)
# Procedure: as §3, §4
# HUVECs [25] = test: Apoptosis detection (AnnexinV-FITC/PI) in HUVECs under high glucose; assay type: cell-based, human; settings: high glucose conditions (FIG. 6D)
# Procedure: HUVECs were inoculated into a 6-well plate and treated with different concentrations of glucose. After 48 hours of culture, the cells were collected, washed twice with cold PBS, and suspended to 1×10^6 cells/mL with a labeling buffer (1×), and 5 μL of AnnexinV-FITC and 5 μL of propidium iodide (PI) were added. The cells were mixed evenly and incubated at room temperature away from light for about 15 minutes. 300 μL of labeling buffer was added to each tube, and samples were loaded within 1 hour. Annexin-V and PI were used to label early and late apoptotic cells, respectively. […] PI is a kind of nucleic acid dye, cannot penetrate the whole cell membrane, but can penetrate the cell membrane of cells in the middle and late apoptosis and dead cells to stain the nucleus.
# Cleaved caspase 3 = test: Immunohistochemistry of Cleaved caspase 3 in vascular tissue around the fistula; assay type: in vivo, rat; settings: 1 mg/kg/day i.p., vs DM group (FIG. 13)
# MCP-1 [26] = test: Western blot of MCP-1 in vascular endothelial cells from rat AVF tissue; assay type: in vivo; settings: vascular endothelial cells isolated from rat AVF tissue, 1 mg/kg/day i.p. (FIG. 14D, 14G)
# Procedure: as §1
# TNF-α [27] = test: Immunohistochemistry of TNF-α in vascular tissue around the fistula; assay type: in vivo, rat; settings: 1 mg/kg/day i.p., vs DM group (FIG. 13)
# Procedure: as §2
# PECs = test: Apoptosis detection in cultured PECs under high glucose; assay type: cell-based; settings: high glucose conditions (FIG. 6E)
smiles,measurement,setting,value
"CC1=C2C[C@H]3[C@@H](CC=C4C[C@@H](O)CC[C@@]43C)[C@@H]2CC[C@]12O[C@@H]1C[C@H](C)CN[C@H]1[C@H]2C [Cyc, Cyclopamine]",expression level of TNF-α (western blot),TNF-α [1],significantly reduced
same,inhibiting the expression of SMO,SMO [2],best effect
same,expression level of SMO (immunohistochemistry),SMO [3],significantly inhibited
same,expression level of IL-6 (immunohistochemistry),IL-6 [4],significantly inhibited
same,IL-6 in plasma,IL-6 [5],significantly reduced
same,expression level of IL-6 (western blot),IL-6 [6],significantly reduced
same,TNF-α in plasma,TNF-α [7],significantly reduced
same,expression of MCP-1 at mRNA level,MCP-1 [8]; glucose 5.5-40 mM (FIG. 7C),inhibit
same,inhibiting the expression of MCP-1,"MCP-1 [8]; high glucose, 10 μM, compared with Vis and Gla at the same dosage (FIG. 5E)",best effect
same,body weight,[9],remained stable over time
same,level of TNF-α in cell culture supernatant,TNF-α [10],decreased
same,blood glucose level,[11],lower than that of the DM group
same,expression of IL-6 at mRNA level,IL-6 [12]; glucose 5.5-40 mM (FIG. 7A),inhibit
same,inhibiting the expression of IL-6,"IL-6 [12]; high glucose, 10 μM, compared with Vis and Gla at the same dosage (FIG. 5C)",best effect
same,level of MCP-1 in cell culture supernatant,MCP-1 [13],decreased
same,expression of MCP-1 at protein level,MCP-1 [14],inhibit
same,expression of IL-6 at protein level,IL-6 [15],inhibit
same,blood flow,"diabetic AVF rats [16]; color Doppler ultrasound near AVF anastomotic stoma, DM+Cyc vs untreated DM group (FIG. 11A)",faster
same,diameter of blood vessels in the fistula,"diabetic AVF rats [16]; ultrasound at AVF anastomosis, DM+Cyc vs untreated group (FIG. 11B)",increased significantly
same,expression level of SMO (western blot),SMO [17],significantly reduced
same,expression level of MCP-1 (immunohistochemistry),MCP-1 [18],significantly inhibited
same,LDH in HUVECs,HUVECs [19],reduced
same,expression of TNF-α at mRNA level,TNF-α [20]; glucose 5.5-40 mM (FIG. 7B),inhibit
same,inhibiting the expression of TNF-α,"TNF-α [20]; high glucose, 10 μM, compared with Vis and Gla at the same dosage (FIG. 5D)",best effect
same,level of IL-6 in cell culture supernatant,IL-6 [21],decreased
same,intima of blood vessels,diabetic AVF rats [22],improved
same,lumen of blood vessels,diabetic AVF rats [22],significantly enlarged
same,expression of TNF-α at protein level,TNF-α [23],inhibit
same,MCP-1 in plasma,MCP-1 [24],significantly reduced
same,apoptosis of HUVECs,HUVECs [25],significantly reduced
same,expression level of Cleaved caspase 3 (immunohistochemistry),Cleaved caspase 3,significantly inhibited
same,expression level of MCP-1 (western blot),MCP-1 [26],significantly reduced
same,expression level of TNF-α (immunohistochemistry),TNF-α [27],significantly inhibited
same,apoptosis of cultured PECs,PECs,significantly reduced
